Test results reported in patent publication US20250177421A1, “METHOD FOR PREVENTING OR TREATING HEARING LOSS” (MACKAY MEDICAL COLLEGE, priority 2022, published 2025).

Assays:
[1] = tested on: cisplatin-injected mice; experiment: Loss of outer hair cells (OHCs) count in cochlear tissues, cisplatin-induced SNHL in mice; type: in vivo
Experimental: (§1) The used procedures followed the protocol reported by Wu et al.^[3]. Inositol hexaphosphate (IP6) obtained from Sigma (USA) was dissolved in ddH2O, and the doses given to the experimental mice intraperitoneally were 40 mg/kg and 80 mg/kg (100 μL of IP6). […] The mice of the control group received only phosphate-buffered saline (PBS, 100 μL).
Experimental mice were anesthetized, and their cochlear tissues were isolated and dissected. For whole-mount dissection, the protocol detailed by Neal et al. was followed^[5]. In brief, the cochlea was decalcified for 1 hour using a decalcification solution purchased from Apex Engineering (Aurora, IL, USA). The excess temporal bone around the cochlea was trimmed, and the cochlea was bisected along the midmodiolar plane and then submerged in phosphate buffered saline (PBS). A series of cuts through the modiolus separated the half-turns from one another. […]
For the loss of OHCs counts, hair cells (HCs) were counterstained with phalloidin, Myo7A and DAPI stainings. […] The images at three randomly-selected regions (300 μm length) in the apical, middle, and basal cochlear turns were acquired by using the same apparatus, and the loss of OHCs was manually counted. Average loss of OHCs was then calculated in apex, middle and base regions, respectively^[6]. Fluorescent images were taken with a Leica SP8 confocal fluorescence microscope. […]

[2] = tested on: cisplatin-injected mice; experiment: Auditory brainstem response (ABR) hearing threshold, cisplatin-induced SNHL in mice; type: in vivo; settings: cisplatin-injected mice (3 mg/kg IP, 5 days) with IP6 40 or 80 mg/kg IP; measured one week later
[3] = parameters: species or system mice; settings: mouse, in vivo
Experimental: as §1

[4] = tested on: kanamycin/furosemide-injected mice; experiment: ABR hearing threshold, kanamycin/furosemide-induced SNHL in mice; type: in vivo; settings: IP6 80 mg/kg or fucoxanthin 60 mg/kg IP for 5 consecutive days
Experimental: For the kanamycin-induced SNHL in mice, the schematic protocol for the dosing and timing of kanamycin, furosemide, IP6 and/or fucoxanthin was presented in FIG. 1B. Kanamycin (Sigma Aldrich, USA) was dissolved in PBS, and kanamycin (1 mg/g) and furosemide (0.1 mg/g, Sigma Aldrich, USA) were injected as a single dose on the first day. Specifically, furosemide was intraperitoneally injected within 30 min after kanamycin was injected subcutaneously (SC). One hour later, IP6 and/or fucoxanthin was intraperitoneally injected for 5 consecutive days. The ABR of mice was measured to evaluate their hearing threshold. In brief, measurements were performed on the scalps of mice under anesthesia by using subdermal needle electrodes placed at the vertex, below the pinna of the left ear (as a reference measurement), and below the contralateral ear (ground). The sound stimuli included clicks ([…]; 4, 8, and 12 kHz). The devices used for ABR measurement were specifically designed for animal experiments (BIOPAC System, USA). […] The ABR threshold was measured through detection of the presence of V waves. […] One week later, the hearing threshold of all groups of mice was measured using ABR instrument. […]

[5] = tested on: kanamycin/furosemide-injected mice; experiment: Loss of OHCs in cochlear tissues (immunohistochemical staining), kanamycin/furosemide-induced SNHL in mice; type: in vivo; settings: IP6 80 mg/kg IP for 5 days in kanamycin/furosemide-injected mice
Experimental: For the kanamycin-induced SNHL in mice, the schematic protocol for the dosing and timing of kanamycin, furosemide, IP6 and/or fucoxanthin was presented in FIG. 1B. Kanamycin (Sigma Aldrich, USA) was dissolved in PBS, and kanamycin (1 mg/g) and furosemide (0.1 mg/g, Sigma Aldrich, USA) were injected as a single dose on the first day. Specifically, furosemide was intraperitoneally injected within 30 min after kanamycin was injected subcutaneously (SC). One hour later, IP6 and/or fucoxanthin was intraperitoneally injected for 5 consecutive days. Experimental mice were anesthetized, and their cochlear tissues were isolated and dissected. For whole-mount dissection, the protocol detailed by Neal et al. was followed^[5]. In brief, the cochlea was decalcified for 1 hour using a decalcification solution purchased from Apex Engineering (Aurora, IL, USA). […] The images at three randomly-selected regions (300 μm length) in the apical, middle, and basal cochlear turns were acquired by using the same apparatus, and the loss of OHCs was manually counted. Average loss of OHCs was then calculated in apex, middle and base regions, respectively^[6]. Fluorescent images were taken with a Leica SP8 confocal fluorescence microscope. […] One week later, the hearing threshold of all groups of mice was measured using ABR instrument. […]

[6] = tested on: mouse cochlear tissues; experiment: NanoString neuropathology gene expression analysis of cochlear tissues; type: in vivo, mice
Experimental: Total mRNA was extracted from mouse cochlear tissues as per the protocol described in previous studies^[10, 11]. The expression profile of neuropathological genes was analyzed using a NanoString mouse neuropathology panel (NanoString Technologies, Seattle, WA, USA), which includes genes involved in neural cell types and neuropathological processes^[12, 13]. All analyses of genes or pathways scores were performed in accordance with the user manual of the nCounter Advanced Analysis Software and were described in detail in previous studies^[10, 11]. Cold Spring Biotech in Taiwan was responsible for performing the NanoString gene expression analysis and bioinformatics analyses.

[7] = tested on: aging mice; experiment: ABR hearing threshold, age-related hearing loss (ARHL) mouse model; type: in vivo; settings: IP6 drink group (2% IP6 in drinking water for 10 months), 12-month-old mice
[8] = tested on: 12-month-old C57BL/6J mice; experiment: Loss of OHCs and IHCs in cochlear tissues (immunohistochemical staining), ARHL mouse model; type: in vivo; settings: 12-month-old mice
[9] = 2% IP6 through drinking water for 10 months
[10] = IP6 80 mg/kg IP three days per week for 10 months

## O=P(O)(O)O[C@H]1[C@H](OP(=O)(O)O)[C@@H](OP(=O)(O)O)[C@H](OP(=O)(O)O)[C@@H](OP(=O)(O)O)[C@H]1OP(=O)(O)O [IP6, inositol hexaphosphate]
[1]; IP6 80 mg/kg IP 2 h before cisplatin 3 mg/kg IP, once per day for 5 days, compared with cisplatin-injected mice without IP6
  loss of OHCs (Myo7A+) in the apex, middle, and base regions: significantly reduced
[2]
  hearing threshold (ABR) after IP6 treatment: 20 to 30 db
[3]
  serum alanine aminotransferase (ALT): no difference
  serum aspartate aminotransferase (AST): no difference
  serum total bilirubin: no difference
[4]
  hearing threshold (ABR) of kanamycin/furosemide-injected mice: significant reduction
[5]
  loss of OHCs (Myo7A+) in the apex, middle and base regions of the cochlear tissues: significantly reduced
[6]; IP6 treatment
  carbohydrate metabolism: mRNA levels of Akt3, Slc1a1, and Slc1a2: upregulated
[6]; IP6 treatment, P<0.05
  lipid metabolism: mRNA levels of Cers6, Dgkb, Dgke, B4galt6, and Pla2g4c: upregulated
[6]; after IP6 treatment (80 mg/kg), kanamycin/furosemide-injected mice, P<0.05
  microglia gene score: mRNA levels of Amigo1, Atp6v1a, and Ap3m2: significantly upregulated
[6]; after IP6 treatment (80 mg/kg), Nrxn1 P<0.01, Prkcb P<0.05
  endothelial cell gene score: mRNA levels of Nrxn1 and Prkcb: significantly upregulated
[6]; after IP6 treatment (80 mg/kg), P<0.01
  neuron score genes (Plcb4, Cacna1a, Calb1, Hen1, Cur1, Arhgap44, Gria4, Scn1a, Grik2, Cntnap1, Shank2, Lrrc4, Rab3a, Nrxn1, Adora1, Pak1, Frmpd4, Scn2a1, Dagla, Atcay): significantly upregulated
[6]; after IP6 treatment, Cntnap1 P<0.01, Scn2a1 and Amigo1 P<0.05
  myelination gene score: mRNA levels of Cntnap1, Scn2a1, and Amigo1: significantly upregulated
[6]; after IP6 treatment, P<0.01
  vesicle trafficking gene scores: mRNA levels of Cacna1a, Calb1, Gabrb2, Syt4, Cnr1, Gria4, Grik2, Rims1, Cacnb4, Stx1b, Shank2, Fgf14, Syt13, Rab3a, Ncam1, Nrxn1, Adora1, Nova1, Gabra1, Rit2: significantly upregulated
[6]; kanamycin/furosemide-injected mice, 80 mg/kg IP6
  transcriptional patterns of astrocytes, endothelial cells, microglia, and neurons: reversed
[7]
  hearing function at the frequency of 12 kHz compared with the control group: significantly improved
[8]; [9]
  loss of IHCs (Myo7A+) in the base regions: moderately mitigated
  loss of OHCs (Myo7A+) in the apex, middle, and base regions: moderately mitigated
[8]; [10]
  loss of IHCs (Myo7A+) in the base regions: moderately mitigated
  loss of OHCs (Myo7A+) in the apex, middle, and base regions: moderately mitigated

## fucoxanthin
[4]
  hearing threshold (ABR) of kanamycin/furosemide-injected mice: significant reduction

## N.N.[Cl][Pt][Cl] [cisplatin, reference compound]
[1]; cisplatin 3 mg/kg IP once per day for 5 days, compared with the control group
  loss of OHCs (Myo7A+) in the apex, middle, and base regions: significant loss
[3]
  serum alanine aminotransferase (ALT): no difference
  serum aspartate aminotransferase (AST): no difference
  serum total bilirubin: no difference
